What was measured:
CD73 [1] = target: T1, CD73 (Homo sapiens (Human), UniProt P21589); type: biochemical; conditions: 1 mM NaH2PO4 in enzyme buffer, CD73 0.3 nM, AMP 15 uM
CD73 [2] = target: T1, CD73; assay: MDA-MB-231 Cell Based CD73 Activity Assay (DMEM); conditions: MDA-MB-231-GFP cells, DMEM medium with 10% human plasma, 200 uM AMP

T1 sequence (P21589 27-574): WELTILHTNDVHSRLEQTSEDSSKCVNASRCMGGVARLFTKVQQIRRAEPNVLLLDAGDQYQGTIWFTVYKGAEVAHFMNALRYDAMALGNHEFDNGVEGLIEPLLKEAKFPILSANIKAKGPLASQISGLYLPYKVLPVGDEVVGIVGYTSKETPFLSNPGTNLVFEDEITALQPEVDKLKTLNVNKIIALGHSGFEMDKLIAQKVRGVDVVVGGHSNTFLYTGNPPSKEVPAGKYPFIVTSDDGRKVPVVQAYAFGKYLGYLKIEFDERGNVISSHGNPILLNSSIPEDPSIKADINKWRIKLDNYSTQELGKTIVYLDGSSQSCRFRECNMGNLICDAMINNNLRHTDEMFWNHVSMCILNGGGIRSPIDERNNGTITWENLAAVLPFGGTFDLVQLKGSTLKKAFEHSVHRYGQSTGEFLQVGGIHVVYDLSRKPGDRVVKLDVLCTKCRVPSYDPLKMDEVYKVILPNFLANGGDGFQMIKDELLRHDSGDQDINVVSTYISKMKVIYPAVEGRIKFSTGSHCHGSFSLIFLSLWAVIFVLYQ

Row | IC50 (CD73 [1]) [nM] | EC50 (CD73 [2]) [nM] | Structure (SMILES)
1 | 17.4 | 133 | CC1CN(c2cc(-c3c[nH]c(=O)[nH]c3=O)nc3c(F)cnn23)CC1(F)F (stereo not drawn) [Example 222, 5-(7-(3,3-difluoro-4-methylpyrrolidin-1-yl)-3-fluoropyrazolo[1,5-a]pyrimidin-5-yl)pyrimidine-2,4(1H,3H)-dione]
2 | 31.4 | 66.4 | O=c1[nH]cc(-c2cc(N3C[C@H]4CCC[C@H]4C3)c3nccn3n2)c(=O)[nH]1 [Example 223, 5-(8-((3aR,6aS)-hexahydrocyclopenta[c]pyrrol-2(1H)-yl)imidazo[1,2-b]pyridazin-6-yl)pyrimidine-2,4(1H,3H)-dione]
3 | 11.9 | 32.6 | O=c1[nH]cc(-c2cc(N3CC4C(C3)C4(F)F)c3nccn3n2)c(=O)[nH]1 (stereo not drawn) [Example 224, 5-(8-(6,6-difluoro-3-azabicyclo[3.1.0]hexan-3-yl)imidazo[1,2-b]pyridazin-6-yl)pyrimidine-2,4(1H,3H)-dione]
4 | 15.2 | 106 | O=c1[nH]cc(-c2cc(N3CC4CC4C3)c3nccn3n2)c(=O)[nH]1 (stereo not drawn) [Example 225, 5-(8-(3-azabicyclo[3.1.0]hexan-3-yl)imidazo[1,2-b]pyridazin-6-yl)pyrimidine-2,4(1H,3H)-dione]
5 | 121 | 410 | O=c1[nH]cc(-c2cc(NC3CCCC3)c3nccn3n2)c(=O)[nH]1 [Example 226, 5-(8-(cyclopentylamino)imidazo[1,2-b]pyridazin-6-yl)pyrimidine-2,4(1H,3H)-dione]
6 | 31.2 | 146 | CC1(C)C2CN(c3cc(-c4c[nH]c(=O)[nH]c4=O)nn4ccnc34)CC21 (stereo not drawn) [Example 228, 5-(8-(6,6-dimethyl-3-azabicyclo[3.1.0]hexan-3-yl)imidazo[1,2-b]pyridazin-6-yl)pyrimidine-2,4(1H,3H)-dione]
7 | 56.9 | 175 | O=c1[nH]cc(-c2cc(N3CC[C@H](C(F)F)C3)c3nccn3n2)c(=O)[nH]1 [Example 229, (S)-5-(8-(3-(difluoromethyl)pyrrolidin-1-yl)imidazo[1,2-b]pyridazin-6-yl)pyrimidine-2,4(1H,3H)-dione]
8 | 39.5 | 64.7 | O=c1[nH]cc(-c2cc(N3CC[C@@H](C(F)F)C3)c3nccn3n2)c(=O)[nH]1 [Example 230, (R)-5-(8-(3-(difluoromethyl)pyrrolidin-1-yl)imidazo[1,2-b]pyridazin-6-yl)pyrimidine-2,4(1H,3H)-dione]
9 | 1.62 | 2 | N#Cc1ccc(OC2CN(c3cc(-c4c[nH]c(=O)[nH]c4=O)nn4ccnc34)CC2(F)F)cc1 (stereo not drawn) [Example 231, 4-((1-(6-(2,4-dioxo-1,2,3,4-tetrahydropyrimidin-5-yl)imidazo[1,2-b]pyridazin-8-yl)-4,4-difluoropyrrolidin-3-yl)oxy)benzonitrile]
10 | 2.15 | 6.18 | O=c1[nH]cc(-c2cc(N3CC(Oc4ccc(C(F)F)cn4)C(F)(F)C3)c3nccn3n2)c(=O)[nH]1 (stereo not drawn) [Example 232, 5-(8-(4-((5-(difluoromethyl)pyridin-2-yl)oxy)-3,3-difluoropyrrolidin-1-yl)imidazo[1,2-b]pyridazin-6-yl)pyrimidine-2,4(1H,3H)-dione]
11 | 1.17 | 0.8 | O=C(Nc1ccccc1F)OC1CN(c2cc(-c3c[nH]c(=O)[nH]c3=O)nn3ccnc23)CC1(F)F (stereo not drawn) [Example 233, 1-(6-(2,4-dioxo-1,2,3,4-tetrahydropyrimidin-5-yl)imidazo[1,2-b]pyridazin-8-yl)-4,4-difluoropyrrolidin-3-yl (2-fluorophenyl)carbamate]
12 | 0.62 | 6.56 | O=C(Nc1ccccc1F)OCC(F)(F)COc1cc(-c2c[nH]c(=O)[nH]c2=O)nn2ccnc12 [Example 234, 3-((6-(2,4-dioxo-1,2,3,4-tetrahydropyrimidin-5-yl)imidazo[1,2-b]pyridazin-8-yl)oxy)-2,2-difluoropropyl (2-fluorophenyl)carbamate]
13 | 0.96 | 0.82 | O=C(Nc1ccc(F)cc1F)O[C@H]1CN(c2cc(-c3c[nH]c(=O)[nH]c3=O)nn3ccnc23)CC1(F)F [Example 235, (S)-1-(6-(2,4-dioxo-1,2,3,4-tetrahydropyrimidin-5-yl)imidazo[1,2-b]pyridazin-8-yl)-4,4-difluoropyrrolidin-3-yl (2,4-difluorophenyl)carbamate]
14 | 1.02 | 3.04 | Cc1ccc(NC(=O)O[C@H]2CN(c3cc(-c4c[nH]c(=O)[nH]c4=O)nn4ccnc34)CC2(F)F)c(F)c1 [Example 236, (S)-1-(6-(2,4-dioxo-1,2,3,4-tetrahydropyrimidin-5-yl)imidazo[1,2-b]pyridazin-8-yl)-4,4-difluoropyrrolidin-3-yl (2-fluoro-4-methylphenyl)carbamate]
15 | 0.7 | 1.1 | N#Cc1ccc(O[C@H]2CN(c3cc(-c4c[nH]c(=O)[nH]c4=O)nn4ccnc34)CC2(F)F)cc1 [Example 237, (S)-4-((1-(6-(2,4-dioxo-1,2,3,4-tetrahydropyrimidin-5-yl)imidazo[1,2-b]pyridazin-8-yl)-4,4-difluoropyrrolidin-3-yl)oxy)benzonitrile]
16 | 0.36 | 5.18 | O=C(Nc1ccc(F)cc1F)OCC(F)(F)COc1cc(-c2c[nH]c(=O)[nH]c2=O)nn2ccnc12 [Example 238, 3-((6-(2,4-dioxo-1,2,3,4-tetrahydropyrimidin-5-yl)imidazo[1,2-b]pyridazin-8-yl)oxy)-2,2-difluoropropyl (2,4-difluorophenyl)carbamate]
17 | 0.86 | 1.17 | O=C(Nc1c(F)cc(F)cc1F)O[C@H]1CN(c2cc(-c3c[nH]c(=O)[nH]c3=O)nn3ccnc23)CC1(F)F [Example 239, (S)-1-(6-(2,4-dioxo-1,2,3,4-tetrahydropyrimidin-5-yl)imidazo[1,2-b]pyridazin-8-yl)-4,4-difluoropyrrolidin-3-yl (2,4,6-trifluorophenyl)carbamate]
18 | 0.28 | 3.79 | O=c1[nH]cc(-c2cc(N3CC[C@@H](Oc4ccc(F)cc4)C3)c3nccn3n2)c(=O)[nH]1 [Example 240, (R)-5-(8-(3-(4-fluorophenoxy)pyrrolidin-1-yl)imidazo[1,2-b]pyridazin-6-yl)pyrimidine-2,4(1H,3H)-dione]
19 | 2.13 | 1.41 | O=C(Nc1ccccc1F)O[C@H]1CN(c2cc(-c3c[nH]c(=O)[nH]c3=O)nn3ccnc23)CC1(F)F [Example 241, (S)-1-(6-(2,4-dioxo-1,2,3,4-tetrahydropyrimidin-5-yl)imidazo[1,2-b]pyridazin-8-yl)-4,4-difluoropyrrolidin-3-yl (2-fluorophenyl)carbamate]
20 | 0.22 | 2.43 | O=c1[nH]cc(-c2cc(N3CCC(Oc4ccccc4)C3)c3nccn3n2)c(=O)[nH]1 (stereo not drawn) [Example 242, 5-(8-(3-phenoxypyrrolidin-1-yl)imidazo[1,2-b]pyridazin-6-yl)pyrimidine-2,4(1H,3H)-dione]
21 | 22.2 | 56.1 | CC1(O)CCN(c2cc(-c3c[nH]c(=O)[nH]c3=O)nn3ccnc23)C1 (stereo not drawn) [Example 243, 5-(8-(3-hydroxy-3-methylpyrrolidin-1-yl)imidazo[1,2-b]pyridazin-6-yl)pyrimidine-2,4(1H,3H)-dione]
22 | 108 | 574 | O=c1[nH]cc(-c2cc(N3CC(F)(C(F)(F)F)C3)n3nccc3n2)c(=O)[nH]1 [Example 244, 5-(7-(3-fluoro-3-(trifluoromethyl)azetidin-1-yl)pyrazolo[1,5-a]pyrimidin-5-yl)pyrimidine-2,4(1H,3H)-dione]
23 | 170 | 747 | CC(=O)NC1CCN(c2cc(-c3c[nH]c(=O)[nH]c3=O)nc3ccnn23)C1 (stereo not drawn) [Example 245, N-(1-(5-(2,4-dioxo-1,2,3,4-tetrahydropyrimidin-5-yl)pyrazolo[1,5-a]pyrimidin-7-yl)pyrrolidin-3-yl)acetamide]
24 | 168 | 213 | CC1(O)CCN(c2cc(-c3c[nH]c(=O)[nH]c3=O)nc3ccnn23)C1 (stereo not drawn) [Example 246, 5-(7-(3-hydroxy-3-methylpyrrolidin-1-yl)pyrazolo[1,5-a]pyrimidin-5-yl)pyrimidine-2,4(1H,3H)-dione]
25 | 41.9 | 93.6 | N#Cc1ccc(C2CN(c3cc(-c4c[nH]c(=O)[nH]c4=O)nn4ccnc34)C2)cc1 [Example 247, 4-(1-(6-(2,4-dioxo-1,2,3,4-tetrahydropyrimidin-5-yl)imidazo[1,2-b]pyridazin-8-yl)azetidin-3-yl)benzonitrile]
26 | 46.1 | 249 | O=c1[nH]cc(-c2cc(N3CCC(c4cccc(C(F)(F)F)c4)C3)c3nccn3n2)c(=O)[nH]1 (stereo not drawn) [Example 249, 5-(8-(3-(3-(trifluoromethyl)phenyl)pyrrolidin-1-yl)imidazo[1,2-b]pyridazin-6-yl)pyrimidine-2,4(1H,3H)-dione]
27 | 110 | 687 | O=c1[nH]cc(-c2cc(N3CCC(c4ccccc4C(F)(F)F)C3)c3nccn3n2)c(=O)[nH]1 (stereo not drawn) [Example 250, 5-(8-(3-(2-(trifluoromethyl)phenyl)pyrrolidin-1-yl)imidazo[1,2-b]pyridazin-6-yl)pyrimidine-2,4(1H,3H)-dione]
28 | 17.6 | 125 | COc1ccc(C2CN(c3cc(-c4c[nH]c(=O)[nH]c4=O)nn4ccnc34)C2)cc1 [Example 251, 5-(8-(3-(4-methoxyphenyl)azetidin-1-yl)imidazo[1,2-b]pyridazin-6-yl)pyrimidine-2,4(1H,3H)-dione]

Row | Structure (SMILES) | IC50 (CD73 [1]) [nM] | EC50 (CD73 [2]) [nM]
29 | O=c1[nH]cc(-c2cc(NC3CCC(F)(F)C3)c3nccn3n2)c(=O)[nH]1 (stereo not drawn) [Example 227, 5-(8-((3,3-difluorocyclopentyl)amino)imidazo[1,2-b]pyridazin-6-yl)pyrimidine-2,4(1H,3H)-dione] | > 250 | 487
30 | O=c1[nH]cc(-c2cc(N3CCC(c4ccc(C(F)(F)F)cc4)C3)c3nccn3n2)c(=O)[nH]1 (stereo not drawn) [Example 248, 5-(8-(3-(4-(trifluoromethyl)phenyl)pyrrolidin-1-yl)imidazo[1,2-b]pyridazin-6-yl)pyrimidine-2,4(1H,3H)-dione] | 15.1 | 36.3

Reference: patent US20240043427A1 (Gilead Sciences, Inc., priority 2020, published 2024)
